pIC50: −log10 of the molar value. Like-named read-outs stand apart in the source and are kept apart here.

Data set [1] is described as follows: Pharmacokinetic test of Drug A in rats, empty stomach vs after food intake. The following applies: oral, absorbed well on an empty stomach. Format: in vivo. The source says:
(§1) Other oral thrombin inhibitors under development than Drug A have been reported to show changes of bioavailability by food intake. […] The above two substances have different activities not only on thrombin but also on trypsin. […] In other words, the bioavailability of S18326 with higher activity on trypsin was more affected by food intake than S31922. […] Its activity on trypsin has not yet been reported, but since it is an ariginine (Arg) derivative like S18326, it is anticipated to have high activity on trypsin. […] The bioavailability of melagatran is affected by food intake because it has a charge in the intestinal pH, and so its membrane permeability is decreased [D. Gustafsson et al., The direct thrombin inhibitor melagatran and its oral prodrug H376/95: Intestinal absorption properties, biochemical and pharmacodynamic effects, Thrombosis Res., 101(2001) 171-181]. In order to improve the decreased membrane permeability, its prodrug was prepared and confirmed to have improved bioavailability and to prevent the bioavailability variance by food intake. However, melagatran is also one in the series of strong basic group, amidine, and thus has a strong inhibitory effect on trypsin.

Data set [2] can be described thus: Pharmacokinetic test of Drug A in dogs, empty stomach vs after food intake. Format: in vivo. As to conditions: oral.
Description: as §1
Drug A is an orally active thrombin inhibitor, and is effective for preventing or treating the formation of thrombus. […]

The target in data set [3] is T1, trypsin (Bos taurus, UniProt P00760).
T1 construct: gene PRSS1
T1 sequence (P00760 24-246): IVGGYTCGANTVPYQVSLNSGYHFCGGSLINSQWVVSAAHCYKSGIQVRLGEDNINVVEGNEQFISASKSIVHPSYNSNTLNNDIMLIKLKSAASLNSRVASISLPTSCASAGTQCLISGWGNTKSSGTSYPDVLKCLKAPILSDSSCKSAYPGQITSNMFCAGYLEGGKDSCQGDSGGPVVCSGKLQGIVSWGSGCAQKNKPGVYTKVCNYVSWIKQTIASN
As to the kind of experiment: Activity (IC50) on trypsin. The following applies: stated in words. The class given is biochemical.
Description: as §1

In a further data set the target is thrombin (Homo sapiens, UniProt P00734). The following applies: cited from earlier work.
The conditions of data set [4]: dogs, oral; cited from earlier work.
For data set [5], the target named is T1, trypsin. The following applies: cited from earlier work.
The conditions of data set [6]: humans, oral; cited from earlier work.
For data set [7] the following is noted: rats, oral; cited from earlier work.

Consider `N=C(N)c1ccc(CNC(=O)[C@@H]2CCCN2C(=O)[C@H](NCC(=O)O)C(c2ccccc2)c2ccccc2)s1` [Drug A, (2S)-N-{5-[amino(imino)methyl]-2-thienyl}methyl-1-{(2R)-2-[(carboxymethyl)amino]-3,3-diphenylpropanoyl}-2-pyrrolidinecarboxamide], for which the “Change of bioavailability when administered after food intake” value in data set [1] and in data set [2] (absorbed well on an empty stomach) was “remarkably decreased” throughout. The Bioavailability after food intake relative to empty stomach in data set [2] (dog, in vivo, solution of Drug A, read-out: Bioavailability after food intake compared with on an empty stomach) turned out to be 10%. Further, the “Activity on the digestive enzyme trypsin” value at trypsin [3] is reported as “high activity”.
With `CC(=O)N[C@H](Cc1ccccc1)C(=O)N(CC(=O)N[C@@H](CCCN=C(N)N)B(O)O)C1CCCC1` [Example S-18326], the pIC50 at thrombin was 8.44. Also, in data set [4], the “Bioavailability after food intake” value is recorded as 6% and the “Bioavailability on an empty stomach” value is reported as 27%. In addition, the pIC50 on trypsin [5] is 7.70.
`NCCCCC(NC(=O)C1(C(=O)NCCc2ccccc2)CCCC1)B(O)O` (stereo not drawn) [Example S-31922]: the negative logarithm of the IC50 (pIC50) on thrombin was 7.37. In addition, in data set [4], the “Bioavailability after food intake” value was 22% and the “Bioavailability on an empty stomach” value is on record as 36%. Also, the pIC50 at trypsin [5] is 6.47.
Take `N=C(N)c1ccc(CNC(=O)[C@@H]2CCN2C(=O)[C@H](NCC(=O)O)C2CCCCC2)cc1` [melagatran]: the “Change of bioavailability after food intake” value in data set [6] is “remarkably decreased”.
For R-Piq-Pro-Arg-H, the “Change of bioavailability after food intake” value in data set [7] and in data set [6] was “remarkably decreased” throughout.

By pIC50 is commonly meant −log10 of the IC50, conventionally taken in molar units.

(Values after patent US20040229821A1, “Orally administrable pharmaceutical compositions and methods for preventing food-drug interaction” (priority 2003, published 2004).)
